According to ChEMBL document CHEMBL5550185, “Targeting hTERT Promoter G-Quadruplex DNA Structures with Small-Molecule Ligand to Downregulate hTERT Expression for Triple-Negative Breast Cancer Therapy” (J Med Chem, 2024):
Active and inactive are the calls of the source. The calls are words filed in the database; no cut-off is given here.

Key:
DNA = test: Binding affinity to Dt21 ssDNA (unknown origin) assessed as thermal stability by measuring change in melting temperature at 400 uM […]; assay type: nucleic-acid assay
Quadruplex DNA [1] = test: Binding affinity to VEGF G4 DNA (unknown origin) assessed as thermal stability by measuring change in melting temperature at 400 uM […]; assay type: nucleic-acid assay
Quadruplex DNA [2] = test: Binding affinity to Bcl-2 G4 DNA (unknown origin) assessed as thermal stability by measuring change in melting temperature at 400 uM […]; assay type: nucleic-acid assay
Quadruplex DNA [3] = test: Binding affinity to Telo21 G4 DNA (unknown origin) assessed as thermal stability by measuring change in melting temperature at 400 uM […]; assay type: nucleic-acid assay
Quadruplex DNA [4] = test: Binding affinity to Telo21 G4 DNA (unknown origin) assessed as dissociation constant by ITC analysis; assay type: nucleic-acid assay
Quadruplex DNA [5] = test: Binding affinity to Telo21 G4 DNA (unknown origin) assessed as change in gibbs free energy at 400 uM by ITC analysis; assay type: nucleic-acid assay
Quadruplex DNA [6] = test: Binding affinity to hTERT G4 DNA assessed as thermal stability by measuring change in melting temperature at 400 uM […]; assay type: nucleic-acid assay; details: Homo sapiens
Quadruplex DNA [7] = test: Binding affinity to hTERT G4 DNA assessed as dissociation constant by ITC analysis; assay type: nucleic-acid assay, Homo sapiens
Quadruplex DNA [8] = test: Binding affinity to hTERT G4 DNA assessed as change in enthalpy at 400 uM by ITC analysis; assay type: nucleic-acid assay; details: Homo sapiens
Homo sapiens = species: Homo sapiens; test: Selectivity ratio of binding affinity to human TERT G4 DNA to binding affinity to antisense i-hTERT DNA
[9] = Selectivity ratio of binding affinity to human TERT G4 DNA to binding affinity to 4a4t duplex DNA (unknown origin)
MDA-MB-231 [10] = test: Cytotoxicity against telomerase-positive human MDA-MB-231 cells assessed as inhibition of cell growth incubated for 48 hrs by MTT assay; assay type: functional, cell-based; details: MDA-MB-231, 48 h
Quadruplex DNA [11] = test: Binding affinity to G4 DNA in telomerase-positive live human MDA-MB-231 cells assessed as colocalization of BG4 and compound at 5 uM incubated for 2 hrs by immunofluorescence assay; assay type: cell-based
MDA-MB-231 [12] = test: Induction of DNA damage in human MDA-MB-231 cells assessed as upregulation of 53BP1 protein expression measured after 48 hrs by Western blot analysis; assay type: functional, cell-based; details: dose 0-1.5 µM
MDA-MB-231 [13] = test: Inhibition of hTERT expression in human MDA-MB-231 cells assessed as reduction in pink foci in cytoplasm at 0.5 uM incubated for 48 hrs in presence of TBHP at 200 uM by immunofluorescence analysis; assay type: functional, cell-based
MDA-MB-231 [14] = test: Induction of mitochondrial dysfunction in human MDA-MB-231 cells assessed as downregulation of mitochondrial respiratory complex I-NDUFB8 expression incubated for 48 hrs by Western blot analysis; assay type: functional, cell-based; details: dose 0-1.5 µM
MDA-MB-231 [15] = test: Disruption of energy metabolism in human MDA-MB-231 cells assessed as reduction in cellular energy production by measuring reduction in oxygen consumption rate at 1.5 uM measured after 2 hrs by Seahorse XF24 analyzer; assay type: functional, cell-based
MDA-MB-231 [16] = test: Disruption of energy metabolism in human MDA-MB-231 cells assessed as increase in ECAR at 0 to 1.5 uM measured after 2 hrs by Seahorse XF24 analyzer; assay type: functional, cell-based; details: dose 0-1.5 µM
MDA-MB-231 [17] = test: Induction of ferroptosis in human MDA-MB-231 cells assessed as increase in ROS production measured after 48 hrs by Hoechst 33342 staining based confocal microscopic analysis; assay type: functional, cell-based; details: dose 0-1.5 µM
MDA-MB-231 [18] = test: Induction of autophagy in human MDA-MB-231 cells assessed as upregulation of LC3-II protein expression at 0 to 1.5 uM measured after 48 hrs by Western blot analysis; assay type: functional, cell-based; details: dose 0-1.5 µM
MDA-MB-231 [19] = test: Downregulation of ND6 gene expression in human MDA-MB-231 cells at 1 uM measured after 48 hrs by RNA-seq analysis; assay type: functional, cell-based
[20] = Upregulation of TGFBR2 gene expression in human MDA-MB-231 cells assessed as fold change at 1 uM measured after 48 hrs by RNA-seq analysis relative to control; assay type: functional
[21] = Upregulation of TGFB3 gene expression in human MDA-MB-231 cells assessed as fold change at 1 uM measured after 48 hrs by RNA-seq analysis relative to control; assay type: functional
[22] = Upregulation of ZFP36L1 gene expression in human MDA-MB-231 cells assessed as fold change at 1 uM measured after 48 hrs by RNA-seq analysis relative to control; assay type: functional
[23] = Upregulation of NFATC4 gene expression in human MDA-MB-231 cells assessed as fold change at 1 uM measured after 48 hrs by RNA-seq analysis relative to control; assay type: functional
[24] = Toxicity in female Balb/c nude mouse xenografted with human MDA-MB-231 cells assessed as signs of skin tear at 2 to 5 mg/kg, iv administered via tail vein every 2 days for 16 days; assay type: organism-based; details: in vivo, 384 h, dose 2-5 mg/kg, time 16 day
[25] = Toxicity in female Balb/c nude mouse xenografted with human MDA-MB-231 cells assessed as signs of discomfort at 2 to 5 mg/kg, iv administered via tail vein every 2 days for 16 days; assay type: organism-based; details: in vivo, 384 h, dose 2-5 mg/kg, time 16 day
MDA-MB-231 [26] = test: Antitumor activity against human MDA-MB-231 cells xenografted in female Balb/c mouse assessed as reduction in tumor weight at 5 mg/kg, iv administered via tail vein every 2 days for 16 days relative to control; assay type: functional; design: scale not given: the % may be the effect or the level left; details: time 16 day
[27] = Toxicity in female Balb/c nude mouse xenografted with human MDA-MB-231 cells assessed as change in AST level at 2 to 5 mg/kg, iv administered via tail vein every 2 days for 16 days; assay type: organism-based; details: in vivo, 384 h, dose 2-5 mg/kg, time 16 day
[28] = Toxicity in female Balb/c nude mouse xenografted with human MDA-MB-231 cells assessed as change in […] level at 2 to 5 mg/kg, iv administered via tail vein every 2 days for 16 days; assay type: organism-based; details: in vivo, 384 h, dose 2-5 mg/kg, time 16 day
[29] = Toxicity in female Balb/c nude mouse xenografted with human MDA-MB-231 cells assessed as change in lymphocyte count at 2 to 5 mg/kg, iv administered via tail vein every 2 days for 16 days; assay type: organism-based; details: in vivo, 384 h, dose 2-5 mg/kg, time 16 day
[30] = Toxicity in female Balb/c nude mouse xenografted with human MDA-MB-231 cells assessed as change in mean corpuscular hemoglobin at 2 to 5 mg/kg, iv administered via tail vein every 2 days for 16 days; assay type: organism-based; details: in vivo, 384 h, dose 2-5 mg/kg, time 16 day

For C[n+]1c(/C=C/c2c[nH]c3ccccc23)cc(/C=C2\Sc3ccccc3N2CCCN2CCC(C(F)(F)F)CC2)c2ccccc21.[I-], the ΔTm (DNA) was -2.51 °C, the ΔTm (Quadruplex DNA [1]) was 0.72 °C and the ΔTm (Quadruplex DNA [2]) was 6.4 °C. The ΔTm (Quadruplex DNA [3]) was 8.85 °C, the Kd (Quadruplex DNA [4]) was 3.28 µM and the deltaG (Quadruplex DNA [5]) was -7.49 kcal/mol. It also gave a ΔTm (Quadruplex DNA [6]) of 11.7 °C, a Kd (Quadruplex DNA [7]) of 1.14 µM and a deltaH (Quadruplex DNA [8]) of -2.72 kcal/mol. The Selectivity ratio (Homo sapiens) was 3, the Selectivity ratio [9] was 3 and the IC50 (MDA-MB-231 [10]) was 1 µM. The Activity (Quadruplex DNA [11]) was “Active”, the Activity (MDA-MB-231 [12]) was “Dose-Dependent Effect” and the inhibition (MDA-MB-231 [13]) was “Active”. For the same compound, the Activity (MDA-MB-231 [14]) was “Dose-Dependent Effect”, the Activity (MDA-MB-231 [15]) was “Active” and the Activity (MDA-MB-231 [16]) was “Active”. The Activity (MDA-MB-231 [17]) was “Dose-Dependent Effect”, the Activity (MDA-MB-231 [18]) was “Active” and the Activity (MDA-MB-231 [19]) was “Active”. For the same compound, the “fold change (FC)” value [20] was >2, the “fold change (FC)” value [21] was >2 and the “fold change (FC)” value [22] was >2. For the same compound, the “fold change (FC)” value [23] was >2, the Activity [24] was “Non-Toxic” and the Activity [25] was “Non-Toxic”. The Activity (MDA-MB-231 [26]) was 78.7%, the Activity [27] was “Non-Toxic” and the Activity [28] was “Non-Toxic”. The Activity [29] was “Non-Toxic” and the Activity [30] was “Non-Toxic”.
